Measured values reported in PMC3962778 (Journal of medicinal chemistry, 2014).
Where “and” joins values, the source holds several entries; their conditions need not be identical. Equal values may be shown once. Read-outs that look alike come from different tables or passages of the source. Blank lines part the entries; values can stand above or below the compound they belong to.

Assays:
[1] = test system: T. brucei brucei (strain BF427); experiment: In vitro parasite growth arrest assay; assay type: cell-based, Trypanosoma brucei brucei; conditions: for EC50: Trypanosoma brucei
[2] = test system: T. brucei rhodesiense STIB 900 strain; experiment: Anti-parasite efficacy studies in mice; conditions: for Cured / Day of euthanasia: mice, oral, 5 days
[3] = 5 mg/kg, 2 doses per day, Exp 1 and Exp 2
[4] = 20 mg/kg, 1 dose per day, Exp 2
[5] = 20 mg/kg, 2 doses per day, Exp 1
[6] = 50 mg/kg, 1 dose per day, Exp 1

Compound: Nc1ccc(Cl)c(-c2nc3ncccc3o2)c1 [Compound 36]
inhibition of T. brucei growth in vitro ([1]; tested up to 20 μM): no inhibition

EC50 ([1]; read-out: EC50, concentration of compound required to inhibit growth by 50%): 1.7 nM
EC50 ([1]; read-out: EC50 against T. brucei in vitro): 1.2 nM
Compound: N=C(N)c1ccc(OCCCCCOc2ccc(C(=N)N)cc2)cc1 [Pentamidine, reference compound]

Compound: O=C(Nc1ccc(F)c(-c2nc3cc(-c4ccccc4)cnc3[nH]2)c1)N1CCCC1 [Compound 64]
extent of growth inhibition of T. brucei in vitro [1]: complete growth inhibition
lowest oral dose at which infected mice were cured (dosed orally down to) ([2]; T. brucei infected mice): 2.5 mg/kg
Cured ([2]; 1 mg/kg, 2 doses per day, Exp 2): 0 of 5 and 0/5
Cured ([2]; 2.5 mg/kg, 2 doses per day, Exp 2): 2 of 5 and 2/5
Cured ([2]; 5 mg/kg, 1 dose per day, Exp 2): 2 of 5 and 2/5
Cured [2, 3]: all mice were cured and 5/5
Day of euthanasia [2, 3]: 60
Cured [2, 4]: Cures in all mice and 5/5
Day of euthanasia [2, 4]: 60
Cured [2, 5]: Cures in all mice and 5/5
Day of euthanasia [2, 5]: 60
Cured [2, 6]: Cures in all mice and 5/5
Day of euthanasia [2, 6]: 60
Cured ([2]; 50 mg/kg, 2 doses per day, Exp 1): Cures in all mice and 5/5
Day of euthanasia ([2]; 50 mg/kg, 2 doses per day, Exp 1, day 60 = cured): 60
